Source: patent publication US20100130516A1, “PURINYL DERIVATIVES AND THEIR USE AS POTASSIUM CHANNEL MODULATORS” (NeuroSearch A/S, priority 2007, published 2010)

Biological target: T1, hSK3 channels (Homo sapiens, UniProt Q9UGI6)
T1 construct: expressed in transfected cells; host or cells: HEK293
Assay: Whole-cell patch-clamp recording of ionic current through SK channels (subtype 3)
Format: cell-based
Conditions: HEK293 cells expressing hSK3 channels
Description: The ionic current through small-conductance Ca^2+-activated K^+ channels (SK channels, subtype 3) is recorded using the whole-cell configuration of the patch-clamp technique in a classic patch-clamp set-up using HEK293 tissue culture cells expressing hSK3 channels as described in e.g. WO 2006/100212.
The SC100 value determined is defined as the Stimulating Concentration required for increasing the baseline current by 100%. The below SC100 value is an indication of the SK3 activating properties of the compound of the invention.

- SC100 (Stimulating Concentration required for increasing the baseline current by 100%): 0.04 µM
SMILES: Cc1ccn(-c2nc(Nc3ccc(F)c(F)c3)c3ncn(C)c3n2)n1 [Compound 5.1, (3,4-Difluoro-phenyl)-[9-methyl-2-(3-methyl-pyrazol-1-yl)-9H-purin-6-yl]-amine]
